Data from article PMC6864722, “Design and Synthesis of Novel Breast Cancer Therapeutic Drug Candidates Based upon the Hydrophobic Feedback Approach of Antiestrogens” (Molecules, 2019).
pEC50, pIC50: −log10 of the molar value. “Also recorded” adds a separate entry of the source.

How the values were obtained:
[1] = biological target: T1, human estrogen receptor α (ERα) (Homo sapiens, UniProt P03372); test: Competitive binding assay using [6,7-3H]17β-estradiol and human recombinant ERα (nitrocellulose filter binding); conditions: for RBA (relative binding affinity): binding affinity of E2 taken as 100, estimated from sigmoidal dose-response curves
T1 sequence (P03372 1-595): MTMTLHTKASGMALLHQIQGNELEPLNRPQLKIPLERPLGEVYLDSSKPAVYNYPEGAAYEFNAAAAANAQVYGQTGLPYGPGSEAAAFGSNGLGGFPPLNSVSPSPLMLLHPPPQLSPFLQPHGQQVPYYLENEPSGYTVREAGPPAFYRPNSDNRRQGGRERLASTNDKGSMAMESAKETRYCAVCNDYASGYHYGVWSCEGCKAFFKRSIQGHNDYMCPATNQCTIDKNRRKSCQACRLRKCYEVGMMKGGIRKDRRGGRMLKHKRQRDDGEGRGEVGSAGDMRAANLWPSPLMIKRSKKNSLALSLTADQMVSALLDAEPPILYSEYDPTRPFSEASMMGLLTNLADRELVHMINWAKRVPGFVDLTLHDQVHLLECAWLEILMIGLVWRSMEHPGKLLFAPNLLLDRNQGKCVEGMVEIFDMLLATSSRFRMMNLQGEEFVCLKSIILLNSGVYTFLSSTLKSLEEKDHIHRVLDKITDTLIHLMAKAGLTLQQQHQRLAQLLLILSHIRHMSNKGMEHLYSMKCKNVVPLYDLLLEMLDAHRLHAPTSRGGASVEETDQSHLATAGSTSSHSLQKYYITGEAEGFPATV
Experimental: The ligand binding activity of human estrogen receptor α (ER α) was determined by a nitrocellulose filter binding assay method. […] Radioactivity that remained in the membrane was measured in Atomlight by using a liquid scintillation counter.
All binding assays were performed in duplicate (n = 2).

MCF-7 cells = test: MCF-7 cell proliferation assay (WST-8), in the presence or absence of 0.1 nM E2; assay type: cell-based, human; conditions: for pEC50: estrogenic activity, absence of E2, four days; for Emax / pIC50: MCF7; for Emax: read-out: Emax (maximal efficacy toward cell proliferation); for pIC50: proliferation induced by 0.1 nM of E2, read-out: IC50 (inhibition of MCF-7 cell proliferation)
Experimental: Table 1 summarizes the EC50, IC50, and Emax values estimated from the MCF-7 cell proliferation assays. Emax represents the maximal efficacy of each compound toward cell proliferation and is an index of ER partial agonistic activity. Emax was estimated relative to that of E2, which was taken as 100.
The human breast adenocarcinoma cell line MCF-7 was routinely cultivated in DMEM supplemented with 10% FBS and 100 IU/mL penicillin and […] streptomycin at 37 °C in a 5% CO2 humidified incubator. Before an assay, MCF-7 cells were switched to DMEM (low glucose phenol red-free supplemented with 5% FBS, and 100 IU/mL penicillin and […] streptomycin). Cells were trypsinized from the maintenance dish with phenol red-free trypsin-EDTA and seeded in a 96-well plate at a density of 2000 cells per final volume of 100 μL DMEM supplemented with 5% stripped FBS and 100 IU/mL penicillin and […] streptomycin. After 24 h, the medium was removed and 90 μL of fresh medium and 10 μL of drug solution, supplemented with serial dilutions of test compounds or DMSO as dilute control in the presence or absence of 0.1 nM E2, were added to triplicate microcultures. Cells were incubated for four days. At the end of the incubation time, number of cells was counted by using the WST-8, which was added to microcultures 10 μL each, and they were incubated for 2–4 h. The absorbance at 450 nm was measured. This parameter relates to and number of living cells in the culture.

ER = system: ER; design: method as in PMID 15943468; conditions: cited from earlier work
ERα = system: ERα; design: method as in doi:10.1351/pac200375091197; conditions: cited from earlier work
OVX and ORX mice = system: OVX and ORX mice; design: method as in doi:10.1351/pac200375091197; conditions: cited from earlier work
[2] = Homo sapiens, relative to E2, taken as 100

Row | Compound | pEC50 (MCF-7 cells; Homo sapiens, MCF7, 96 h) | RBA (relative binding affinity) [1] [%] | melting point [°C] | Binding to ERα (in words) [1] | Estrogenic / antiestrogenic activity toward MCF-7 (in words) (MCF-7 cells) | Emax (MCF-7 cells; [2]) [%] | further results
1 | Oc1ccc(C2=C(c3ccc(O)cc3)CSC2)cc1 [4a, 3,4-Bis-(4-hydroxyphenyl)-2,5-dihydrothiophene] | 6.41 | – | – | moderately bound to ERα | showed estrogenic activity | 119 | Binding affinity, times lower than that of E2 [1]: about 100 times
2 | CN(C)CCCOc1ccc(C2=C(c3ccc(O)cc3)CSC2)cc1 [4d, 4-{4-[4-(3-dimethylaminopropoxy)phenyl]-2,5-dihydrothiophen-3-yl}phenol] | – | 4.0 | 177 to 178.5 | – | acted as ER antagonists | – | pIC50 (MCF-7 cells; Homo sapiens): 6.39
3 | Oc1ccc(C2=C(c3ccc(O)cc3)C3CCC2CC3)cc1 [compound 2] | – | – | – | – | – | – | Estrogenic activity (in words) (ER): potent estrogenic activity
4 | O=S1(=O)CC(c2ccc(O)cc2)=C(c2ccc(O)cc2)C1 [4c, 3,4-Bis-(4-hydroxyphenyl)-2,5-dihydrothiophene-1,1-dioxide] | 6.52 | 0.04 | 180.5 to 181 | did not bind to the ERα ligand-binding domain (LBD), even at concentrations 1000 times higher than that of E2 | showed estrogenic activity | 130 | –
5 | CC1(C)CC(c2ccc(O)cc2)=C(c2ccc(O)cc2)CC1(C)C [compound 3] | – | – | – | – | – | – | Estrogenic activity (in words) (ER): acted as a partial agonist
6 | [O-][S+]1CC(c2ccc(O)cc2)=C(c2ccc(O)cc2)C1 [4b, 3,4-Bis-(4-hydroxyphenyl)-2,5-dihydrothiophene-1-oxide] | – | 0.003 | 219 to 220 | did not bind to the ERα ligand-binding domain (LBD), even at concentrations 1000 times higher than that of E2 | – | – | –
7 | 1,2-bis(4-hydroxyphenyl)-o-carborane [BE360] | – | – | – | – | – | – | Binding affinity toward ERα (in words) (ERα): high binding affinity toward ERα; Estrogenic action in bone and uterus (in words) (OVX and ORX mice): estrogenic action in bone without showing estrogenic action in the uterus
8 | CN(C)CCCOc1ccc(C2=C(c3ccc(O)cc3)CCSCC2)cc1 [5d, 4-{5-[4-(3-Dimethylaminopropoxy)phenyl]-2,3,6,7-tetrahydrothiepin-4-yl}phenol] | – | – | – | – | acted as ER antagonists | – | pIC50 (MCF-7 cells; Homo sapiens): 7.05

The next lines start with results.

Row | pEC50 (MCF-7 cells; Homo sapiens, MCF7, 96 h) | RBA (relative binding affinity) [1] [%] | melting point [°C] | Compound | Binding to ERα (in words) [1] | Estrogenic / antiestrogenic activity toward MCF-7 (in words) (MCF-7 cells) | Emax (MCF-7 cells; [2]) [%] | further results
9 | 5.33 | – | – | O=S1(=O)CCC(c2ccc(O)cc2)=C(c2ccc(O)cc2)CC1 [5c, 4,5-Bis (4-hydroxyphenyl)-2,3,6,7-tetrahydrothiepine-1,1-dioxide] | – | weak estrogenic activity; also recorded: showed estrogenic activity | 89 | –
10 | – | 4.9 | – | 3,4-Bis (4-hydroxyphenyl)-2,3,6,7-tetrahydrothiepine [5a] | – | acted as an agonist toward MCF-7 cell proliferation; also recorded: showed estrogenic activity | – | pEC50 (MCF-7 cells): 7.32; Emax (maximal efficacy toward cell proliferation) (MCF-7 cells; relative to E2, taken as 100): 99%
